Experimental data taken from patent EP0385850A2, “Benzimidazole and azabenzimidazole derivatives, process for their preparation, synthesis intermediates, pharmaceutical compositions containing them, useful for the treatment of cardiovascular diseases and duodenal ulcers” (LABORATOIRES UPSA, priority 1989, dated 1990).

Columns and labels:
rats mâles de souche OFA [1] = assay: anti-ulcer activity against a necrotising agent (e.g. absolute ethanol), oral, rat; assay type: in vivo; conditions: v.o., 30 min before necrotising agent, stomachs removed 1 h after, dose reducing lesions by 50 %, determined graphically, read-out: activité anti-ulcère vis à vis d'un agent nécrosant DA 50 Mg/Kg v.o.
Description: (§1) Des lots de 10 à 30 rats mâles de souche OFA (Iffa Credo), pesant 160-180 g, sont mis à la diète hydrique 24 h avant l'administration orale du produit étudié. Trente minutes plus tard, un agent ulcérigène médicamenteux ou un agent nécrosant (exemple : éthanol absolu) est administré par voie orale à des doses qui entraînent chez les animaux témoins une ulcération gastrique maximale. Les estomacs sont prélevés, selon le test, respectivement 6 et 1 h après le dernier traitement. Les lésions gastriques sont alors évaluées macroscopiquement (cotation et mesure de l'ampleur des ulcères).
(§2) Ils sont exprimés sous forme de dose active 50 déterminée graphiquement. Cette dose exprime la dose nécessaire pour réduire de 50 % les lésions ulcéreuses observées chez les animaux témoins.

rats mâles de souche OFA [2] = assay: anti-ulcer activity against a non-steroidal anti-inflammatory (ulcerogenic drug), oral, rat; assay type: in vivo; conditions: v.o., 30 min before ulcerogenic drug, stomachs removed 6 h after, dose reducing lesions by 50 %, determined graphically, read-out: activité anti-ulcère vis à vis d'un anti-inflammatoire non stéroïdien DA 50 Mg/Kg v.o.
Description: as §1, §2

Structure (SMILES)	ED50 (rats mâles de souche OFA [1]) [mg/kg]	ED50 (rats mâles de souche OFA [2]) [mg/kg]
Cn1c(=S)[nH]c2ccc(-n3ccnc3)cc21 [Exemple 124, (imidazolyl-1)-5 méthyl-3 benzimidazole thione-2]	4.5	
CSc1nc2ccc(-n3ccnc3)cc2[nH]1 [Exemple 128, (Imidazolyl-1)-5 (méthylthio)-2 benzimidazole]	4.5	18.3
C=CCSc1nc2ccc(-n3ccnc3)cc2[nH]1 [Exemple 129, (imidazolyl-1)-5 (allylthio)-2 benzimidazole]	0.33	
C#CCSc1nc2ccc(-n3ccnc3)cc2[nH]1 [Exemple 130, (Imidazolyl-1)-5 (propargylthio)-2 benzimidazole]	0.48	9.24
